Measurements: patent US7691582B2, “Methods of secretory vimentin detection and modulation” (The Regents of the University of Michigan, priority 2002, dated 2010)
“Also recorded” adds a separate entry of the source.

Legend:
Format in all cases: cell-based, human
[1] = tested on: vimentin proteolysis in MDM; assay: Vimentin proteolytic products in MDM, Western blot with V9; settings: MDM treated with E-64 [100 µM], 12 h; FIG. 3e
Description: Cells were maintained for 12-48 h in serum-free medium. When applicable, during the incubation in serum-free media cells were treated for 12 h with 10-500 ng ml^−1 IL-10, 0.5-5 ng ml^−1 TNF-α, 4 μg ml^−1 tunicamycin, E-64 [100 µM] (Sigma), or 2 or 4 μg ml^−1 monensin (Pharmingen). Alternatively, cells were treated for 2 h with GÖ 6983 [250 nM], SB 203580 [100 μM], or OA [100 nM] (Calbiochem) followed by 12 h incubation in serum-free media or treatment with TNF-α. The viability of the cells up to 48 h was almost 100% as measured by MTT assay (Boehringer Mannheim, Indianapolis, Ind.) and LDH release as previously described^12. Supernatants were collected and centrifuged for 20 min at 1500 RPM to remove cell debris and concentrated by a centrifugal filter device (Millipore) in the presence of a protease inhibitor cocktail (Boehringer Mannheim, Indianapolis, Ind.) and were either used immediately or stored at −70° C. Cells were washed and lysed with 1 ml lysis buffer (50 mM Tris pH 7.5, 150 mM NaCl, 1% NP-40 0.1% SDS, 0.5% Na-Deoxycholate and complete EDTA-free protease inhibitor cocktail) was added to the cells and allowed to incubate on ice for 15 min. […] Chemiluminescent signal was detected using the Super Signal West Pico system (Pierce Chemical Co, Rockford, Ill.).

[2] = tested on: vimentin in 12 day MDM; assay: In vivo phosphorylation of vimentin, [32P] orthophosphate incorporation in 12 day MDM; settings: GÖ 6983 250 nM or OA 100 nM during [32P] labeling, Western blot of same membrane, FIG. 4e
Description: 12 day MDM (1.5×10^6) were rinsed three times with phosphate-free RPMI medium (Gibco-BRL, Grand Island, N.Y.). Cells were incubated in 5 ml of phosphate-free RPMI media and allowed to equilibrate at 37 ° C. in a 6 well plate for 2 h. The media was replaced with 1 ml/well of phosphate-free RPMI media with 10% dialysed human serum and 0.166 mCi of [^32P] orthophosphoric acid (Amersham Pharmacia Biotech) for 6 h of incubation. In addition to the control, some wells were treated with GÖ 6983 [250 nM] or OA [100 nM]. Following treatment, medium was removed and replaced by serum free medium for 18 h. Supernatant and cells were prepared for immunoprecipitation as described above (Metabolic Labeling section). Phosphorylated vimentin protein was immunoprecipitated as above, and the samples were separated by 10% SDS-PAGE electrophoresis under reducing conditions. Proteins were transferred to nitrocellulose and subjected to autoradiography for 4 h then immunoblotted with mouse monoclonal anti-vimentin antibody (Research Genetics, Inc.), stripped and re-probed with goat polyclonal anti-vimentin antibody (Chemicon International, Calif.), followed by horseradish peroxidase-conjugated goat anti-mouse or rabbit anti-goat secondary antibodies. Chemiluminescent signal was detected using the Super Signal West Pico system (Pierce Chemical Co, Rockford, Ill.).

[3] = tested on: secretion of vimentin from MDM; assay: Vimentin secretion by MDM, Western blot of supernatants; settings: for vimentin secretion (vimentin in the supernatant): MDM treated 2 h with inhibitor (GÖ 6983 250 nM; SB 203580 100 μM), FIGS. 3c, 4a, 4b; for secretion of vimentin from the mature MDM: eleven day MDM, 40% human serum, monensin 2 or 4 μg ml−1 or tunicamycin 4 μg ml−1, 12 h, FIG. 2h
Description: Monocyte-derived macrophages (MDMs) were prepared as previously described^40. Briefly, heparinized venous blood was collected upon consent from healthy volunteers, and peripheral blood mononuclear cells (PBMC) were separated by Ficoll-Hypaque (Pharmacia Biotech AB, Uppsala, Sweden) density gradient centrifugation. MDM were purified by adherence to plastic for 2 hat […] at a concentration of 5×10^5 ml^−1. Adherent cells were consistently >90% monocytes as described^40. Adherence-purified human monocytes were cultured in X-vivo medium supplemented with 40% human AB serum (Bio-Whittaker, Walkersville, Md.) and 100 units of penicillin and 50 units of streptomycin per ml^12.
Cells were maintained for 12-48 h in serum-free medium. When applicable, during the incubation in serum-free media cells were treated for 12 h with 10-500 ng ml^−1 IL-10, 0.5-5 ng ml^−1 TNF-α, 4 μg ml^−1 tunicamycin, E-64 [100 µM] (Sigma), or 2 or 4 μg ml^−1 monensin (Pharmingen). Alternatively, cells were treated for 2 h with GÖ 6983 [250 nM], SB 203580 [100 μM], or OA [100 nM] (Calbiochem) followed by 12 h incubation in serum-free media or treatment with TNF-α. The viability of the cells up to 48 h was almost 100% as measured by MTT assay (Boehringer Mannheim, Indianapolis, Ind.) and LDH release as previously described^12. Supernatants were collected and centrifuged for 20 min at 1500 RPM to remove cell debris and concentrated by a centrifugal filter device (Millipore) in the presence of a protease inhibitor cocktail (Boehringer Mannheim, Indianapolis, Ind.) and were either used immediately or stored at −70° C. Cells were washed and lysed with 1 ml lysis buffer (50 mM Tris pH 7.5, 150 mM NaCl, 1% NP-40 0.1% SDS, 0.5% Na-Deoxycholate and complete EDTA-free protease inhibitor cocktail) was added to the cells and allowed to incubate on ice for 15 min. The lysate was centrifuged at 10,000 rpm for 20 min at 4° C., the supernatant recovered, and the protein extract was either used immediately or stored at −70° C. Equal amounts of protein (20 μg) were loaded under reducing conditions and separated by 10% SDS PAGE. The gel was transferred to nitrocellulose and immunoblotted with mouse monoclonal anti-vimentin antibody V9 (Research Genetics, Inc), goat anti-vimentin antibody (Chemicon International, Calif.) or goat anti-actin (Santa-Cruz Biotechnology, Inc) followed by a horseradish peroxidase-conjugated appropriate secondary antibody. Chemiluminescent signal was detected using the Super Signal West Pico system (Pierce Chemical Co, Rockford, Ill.).

[4] = tested on: phosphorylated vimentin in MDM; assay: Immunoprecipitation with anti-phospho-(Ser/Thr) antibody, vimentin detected by V9; settings: 7 day MDM in 10% serum; okadaic acid 100 nM or GÖ 6983 250 nM, 2 h; FIG. 4d
[5] = tested on: secretion of vimentin from MDM; assay: Vimentin secretion by MDM, Western blot of supernatants

CC(C)C[C@H](NC(=O)[C@H]1O[C@@H]1C(=O)O)C(=O)NCCCCN=C(N)N [E-64]
vimentin proteolytic products, intracellularly and in the supernatant [1]: marked decrease

COc1ccc2c(c1)c(C1=C(c3c[nH]c4ccccc34)C(=O)NC1=O)cn2CCCN(C)C [GÖ6983]
secretion of vimentin (62 kD and 52 kD forms) [2]: eliminated essentially all the secretion of vimentin | secretion of vimentin in the presence of TNF-α ([3]; 40% serum treated MDM, GÖ6983 followed by TNF-α): not blocked | vimentin secretion (vimentin in the supernatant) [3]: almost completely blocked; also recorded: significantly blocked | amount of actin detected in the supernatants ([3]; eleven day MDM with or without GÖ6983, FIG. 3c): does not modify the amount of actin | amount of phosphorylated vimentin in cells (cytoplasm) and supernatant [4]: markedly decreased the amount of phosphorylated vimentin in the cytoplasm as well as in the supernatant | OA-enhanced vimentin secretion ([5]; 7 day MDM in 10% serum, preincubated with GÖ 6983 250 nM 2 h prior to OA 100 nM, FIG. 4b): partially decreased

CC[C@@]1([C@@H]2O[C@@H]([C@H]3O[C@@](O)(CO)[C@H](C)C[C@@H]3C)C[C@@H]2C)CC[C@H]([C@]2(C)CC[C@]3(C[C@H](O)[C@@H](C)[C@@H]([C@@H](C)[C@@H](OC)[C@H](C)C(=O)O)O3)O2)O1 [Monensin, monensin]
secretion of vimentin from the mature MDM [3]: eliminate secretion of vimentin

C=C1[C@@H](O)[C@@H]2O[C@]3(CC[C@H](/C=C/[C@@H](C)[C@@H]4CC(C)=C[C@@]5(O[C@H](C[C@@](C)(O)C(=O)O)CC[C@H]5O)O4)O3)CC[C@H]2O[C@@H]1[C@@H](O)C[C@H](C)[C@H]1O[C@@]2(CCCCO2)CC[C@H]1C [OA, okadaic acid]
secretion of vimentin (62 kD and 52 kD forms) [2]: preferentially enhances secretion of the 52 kD form | extracellular vimentin levels ([3]; 10 day MDM in 40% serum, okadaic acid 100 nM, 2 h, FIG. 4a): led to an increase in extracellular vimentin levels | amount of phosphorylated vimentin in cells (cytoplasm) and supernatant [4]: increase in phosphorylated vimentin in the supernatants but not in the cells | increase in vimentin secretion ([5]; 7 day MDM in 10% serum, okadaic acid 100 nM, 2 h, FIG. 4b): > 10 fold

C[S+]([O-])c1ccc(-c2nc(-c3ccncc3)c(-c3ccc(F)cc3)[nH]2)cc1 (stereo not shown) [SB203580]
vimentin secretion (vimentin in the supernatant) [3]: did not block secretion

TNF-α
induction of secretion of vimentin ([5]; 1 day human monocytes in 10% human serum, TNF-α 0.5, 1 or 5 ng ml−1, 12 h, densitometry, FIGS. 5b, 5c): up to 120 fold

tunicamycin
secretion of vimentin from the mature MDM [3]: eliminate secretion of vimentin

B1: IL-10: anti-inflammatory cytokine, a potent inhibitor of activated macrophages (protein, UniProt P22301 19-178, looked up)
Interleukin-10: SPGQGTQSENSCTHFPGNLPNMLRDLRDAFSRVKTFFQMKDQLDNLLLKESLLEDFKGYLGCQALSEMIQFYLEEVMPQAENQDPDIKAHVNSLGENLKTLRLRLRRCHRFLPCENKSKAVEQVKNAFNKLQEKGIYKAMSEFDIFINYIEAYMTMKIRN
secretion of vimentin ([3]; MDM in 40% human serum, IL-10 10, 50 or 500 ng ml−1, 12 h, FIG. 5a): markedly decreased the secretion of vimentin
